From ChEMBL document CHEMBL5154879, “Induction of Genes Implicated in Stress Response and Autophagy by a Novel Quinolin-8-yl-nicotinamide QN523 in Pancreatic Cancer” (J Med Chem, 2022)
Activity calls are given as the source filed them. No cut-off for these calls is given here.

Key:
Format in all cases: functional, cell-based
MIA PaCa-2 [1] = test: Cytotoxicity against human MIA PaCa-2 cells assessed as inhibition of cell growth incubated for 72 hrs by MTT assay; settings: MIA PaCa-2, 72 h
MIA PaCa-2 [2] = test: Induction of autophagy in human MIA PaCa-2 cells assessed as accumulation of WIP11 marker gene expression at […] incubated for 72 hrs by Western blot analysis
MIA PaCa-2 [3] = test: Induction of autophagy in human MIA PaCa-2 cells assessed as accumulation of GABARAPL1 marker gene expression at […] incubated for 72 hrs by Western blot analysis
MIA PaCa-2 [4] = test: Induction of autophagy in human MIA PaCa-2 cells assessed as accumulation of LC3B marker gene expression at […] incubated for 72 hrs by Western blot analysis

## CC1=C(CC(=O)O)c2cc(F)ccc2/C1=C\c1ccc([S+](C)[O-])cc1 (centres undefined)
MIA PaCa-2 [1]
  IC50: 300 µM
MIA PaCa-2 [2]
  Activity: Active
MIA PaCa-2 [3]
  Activity: Active
MIA PaCa-2 [4]
  Activity: Active
